{"source": "ChEMBL document CHEMBL1138399", "about": "“Novel poly(ADP-ribose) polymerase-1 inhibitors” (Bioorg Med Chem Lett, 2007)", "key": {"[1]": {"test_system": "PC-12", "test": "Recovery of NAD+ in hydrogen peroxide treated PC12 cells at 1 uM relative to control", "type": "functional, Rattus norvegicus"}, "[2]": {"test_system": "PC-12", "test": "Maximum recovery of NAD+ in hydrogen peroxide treated PC12 cells at 30 uM relative to control", "type": "functional, Rattus norvegicus"}, "[3]": {"test_system": "PC-12", "test": "Maximum recovery of NAD+ in hydrogen peroxide treated PC12 cells at 10 uM relative to control", "type": "functional, Rattus norvegicus"}, "[4]": {"biological_target": "Poly [ADP-ribose] polymerase 1 (Homo sapiens, UniProt P09874)", "sequence (P09874 whole entry)": "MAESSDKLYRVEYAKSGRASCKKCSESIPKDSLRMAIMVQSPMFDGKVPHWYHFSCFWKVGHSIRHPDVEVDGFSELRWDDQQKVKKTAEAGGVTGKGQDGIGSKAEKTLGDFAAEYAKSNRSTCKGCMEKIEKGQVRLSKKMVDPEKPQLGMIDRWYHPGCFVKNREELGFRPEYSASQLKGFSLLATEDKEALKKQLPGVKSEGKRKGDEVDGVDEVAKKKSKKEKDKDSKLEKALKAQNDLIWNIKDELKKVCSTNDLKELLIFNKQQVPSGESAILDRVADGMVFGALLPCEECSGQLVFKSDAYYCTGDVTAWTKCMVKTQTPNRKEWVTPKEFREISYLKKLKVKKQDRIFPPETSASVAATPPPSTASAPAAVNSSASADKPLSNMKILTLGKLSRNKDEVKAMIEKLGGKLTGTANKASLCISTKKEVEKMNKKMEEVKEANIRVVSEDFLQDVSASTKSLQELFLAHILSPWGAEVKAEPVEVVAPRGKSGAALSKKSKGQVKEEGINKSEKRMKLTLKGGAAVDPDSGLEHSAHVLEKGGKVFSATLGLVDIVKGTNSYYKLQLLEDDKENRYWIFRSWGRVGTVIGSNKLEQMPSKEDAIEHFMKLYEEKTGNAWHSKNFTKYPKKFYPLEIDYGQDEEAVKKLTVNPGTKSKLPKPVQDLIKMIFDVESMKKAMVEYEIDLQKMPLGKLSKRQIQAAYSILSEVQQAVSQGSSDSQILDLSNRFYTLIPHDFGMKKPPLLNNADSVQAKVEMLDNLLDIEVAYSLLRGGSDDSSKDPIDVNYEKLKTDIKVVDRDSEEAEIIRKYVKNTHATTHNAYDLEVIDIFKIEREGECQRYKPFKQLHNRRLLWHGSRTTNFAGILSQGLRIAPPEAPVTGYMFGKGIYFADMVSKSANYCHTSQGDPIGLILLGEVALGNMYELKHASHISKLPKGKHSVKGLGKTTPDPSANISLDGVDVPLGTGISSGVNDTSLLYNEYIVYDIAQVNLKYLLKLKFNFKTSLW", "test": "Inhibition of human recombinant PARP1 in U251MG cells by CometAssay", "type": "cell-based, U-251"}, "[5]": {"test_system": "PC-12", "test": "Maximum recovery of NAD+ in hydrogen peroxide treated PC12 cells at 3 uM relative to control", "type": "functional, Rattus norvegicus"}}, "data": [{"smiles": "CC(=O)c1ccc2[nH]c3c4c(c5c(c3c2c1)C(=O)NC5=O)CCC4", "values": [{"measurement": "Activity", "setting": "[1]", "value": 35, "unit": "%"}, {"measurement": "Activity", "setting": "[2]", "value": 57, "unit": "%"}]}, {"smiles": "Cc1nc(-c2ccc3[nH]c4c5c(c6c(c4c3c2)C(=O)NC6=O)CCC5)c(Br)s1", "values": [{"measurement": "Activity", "setting": "[1]", "value": 16, "unit": "%"}, {"measurement": "Activity", "setting": "[2]", "value": 57, "unit": "%"}]}, {"smiles": "CC(C)CC(=O)NCc1nc(-c2ccc3[nH]c4c5c(c6c(c4c3c2)C(=O)NC6=O)CCC5)cs1", "values": [{"measurement": "Activity", "setting": "[1]", "value": 13, "unit": "%"}, {"measurement": "Activity", "setting": "[2]", "value": 30, "unit": "%"}]}, {"smiles": "CS(=O)(=O)Cc1nc(-c2ccc3[nH]c4c5c(c6c(c4c3c2)C(=O)NC6=O)CCC5)cs1", "values": [{"measurement": "Activity", "setting": "[1]", "value": 16, "unit": "%"}, {"measurement": "Activity", "setting": "[2]", "value": 62, "unit": "%"}]}, {"smiles": "Br.NCc1nc(-c2ccc3[nH]c4c5c(c6c(c4c3c2)C(=O)NC6=O)CCC5)cs1", "values": [{"measurement": "Activity", "setting": "[1]", "value": 20, "unit": "%"}, {"measurement": "Activity", "setting": "[3]", "value": 41, "unit": "%"}]}, {"smiles": "Nc1nc(-c2ccc3[nH]c4c5c(c6c(c4c3c2)C(=O)NC6=O)CCC5)cs1", "values": [{"measurement": "Activity", "setting": "[1]", "value": 48, "unit": "%"}, {"measurement": "Activity", "setting": "[2]", "value": 100, "unit": "%"}]}, {"smiles": "CC(C)(C)S(=O)(=O)Cc1nc(-c2ccc3[nH]c4c5c(c6c(c4c3c2)C(=O)NC6=O)CCC5)cs1", "values": [{"measurement": "Activity", "setting": "[1]", "value": 33, "unit": "%"}, {"measurement": "Activity", "setting": "[2]", "value": 51, "unit": "%"}]}, {"smiles": "NC(CCCc1nc(-c2ccc3[nH]c4c5c(c6c(c4c3c2)C(=O)NC6=O)CCC5)cs1)C(=O)O.O=C(O)C(F)(F)F", "note": "(configuration not stated)", "values": [{"measurement": "IC50", "setting": "[4]", "value": 22, "unit": "nM"}, {"measurement": "Activity", "setting": "[1]", "value": 7, "unit": "%"}, {"measurement": "Activity", "setting": "[2]", "value": 47, "unit": "%"}]}, {"smiles": "O=C1NC(=O)c2c1c1c(c3[nH]c4ccc(-c5csc(-c6ccno6)n5)cc4c23)CCC1", "values": [{"measurement": "IC50", "setting": "[4]", "value": 66, "unit": "nM"}, {"measurement": "Activity", "setting": "[1]", "value": 11, "unit": "%"}, {"measurement": "Activity", "setting": "[2]", "value": 27, "unit": "%"}]}, {"smiles": "N=C(N)Nc1nc(-c2ccc3[nH]c4c5c(c6c(c4c3c2)C(=O)NC6=O)CCC5)cs1", "values": [{"measurement": "Activity", "setting": "[1]", "value": 19, "unit": "%"}, {"measurement": "Activity", "setting": "[2]", "value": 53, "unit": "%"}]}, {"smiles": "CC(C)(C)OC(=O)Cc1nc(-c2ccc3[nH]c4c5c(c6c(c4c3c2)C(=O)NC6=O)CCC5)cs1", "values": [{"measurement": "Activity", "setting": "[1]", "value": 20, "unit": "%"}, {"measurement": "Activity", "setting": "[2]", "value": 49, "unit": "%"}]}, {"smiles": "Cc1nc(-c2ccc3[nH]c4c5c(c6c(c4c3c2)C(=O)NC6=O)CCC5)cs1", "values": [{"measurement": "Activity", "setting": "[1]", "value": 19, "unit": "%"}, {"measurement": "Activity", "setting": "[2]", "value": 63, "unit": "%"}]}, {"smiles": "CC(C)(C)C(=O)OCc1nc(-c2ccc3[nH]c4c5c(c6c(c4c3c2)C(=O)NC6=O)CCC5)cs1", "values": [{"measurement": "Activity", "setting": "[1]", "value": 14, "unit": "%"}, {"measurement": "Activity", "setting": "[2]", "value": 27, "unit": "%"}]}, {"smiles": "CC(=O)NCc1nc(-c2ccc3[nH]c4c5c(c6c(c4c3c2)C(=O)NC6=O)CCC5)cs1", "values": [{"measurement": "Activity", "setting": "[1]", "value": 20, "unit": "%"}, {"measurement": "Activity", "setting": "[2]", "value": 51, "unit": "%"}]}, {"smiles": "O=C(NCc1nc(-c2ccc3[nH]c4c5c(c6c(c4c3c2)C(=O)NC6=O)CCC5)cs1)OCc1ccccc1", "values": [{"measurement": "Activity", "setting": "[1]", "value": 17, "unit": "%"}, {"measurement": "Activity", "setting": "[2]", "value": 46, "unit": "%"}]}, {"smiles": "Cc1sc(N)nc1-c1ccc2[nH]c3c4c(c5c(c3c2c1)C(=O)NC5=O)CCC4", "values": [{"measurement": "Activity", "setting": "[1]", "value": 37, "unit": "%"}, {"measurement": "Activity", "setting": "[5]", "value": 38, "unit": "%"}]}, {"smiles": "CS(=O)(=O)NCc1nc(-c2ccc3[nH]c4c5c(c6c(c4c3c2)C(=O)NC6=O)CCC5)cs1", "values": [{"measurement": "IC50", "setting": "[4]", "value": 18, "unit": "nM"}, {"measurement": "Activity", "setting": "[1]", "value": 22, "unit": "%"}, {"measurement": "Activity", "setting": "[2]", "value": 28, "unit": "%"}]}, {"smiles": "CCCCC(=O)NCc1nc(-c2ccc3[nH]c4c5c(c6c(c4c3c2)C(=O)NC6=O)CCC5)cs1", "values": [{"measurement": "Activity", "setting": "[1]", "value": 15, "unit": "%"}, {"measurement": "Activity", "setting": "[2]", "value": 34, "unit": "%"}]}, {"smiles": "CCC(=O)NCc1nc(-c2ccc3[nH]c4c5c(c6c(c4c3c2)C(=O)NC6=O)CCC5)cs1", "values": [{"measurement": "Activity", "setting": "[1]", "value": 16, "unit": "%"}, {"measurement": "Activity", "setting": "[2]", "value": 20, "unit": "%"}]}, {"smiles": "CC(C)C(=O)NCc1nc(-c2ccc3[nH]c4c5c(c6c(c4c3c2)C(=O)NC6=O)CCC5)cs1", "values": [{"measurement": "Activity", "setting": "[1]", "value": 10, "unit": "%"}, {"measurement": "Activity", "setting": "[2]", "value": 33, "unit": "%"}]}, {"smiles": "CCNC(=O)NCc1nc(-c2ccc3[nH]c4c5c(c6c(c4c3c2)C(=O)NC6=O)CCC5)cs1", "values": [{"measurement": "Activity", "setting": "[1]", "value": 15, "unit": "%"}, {"measurement": "Activity", "setting": "[3]", "value": 22, "unit": "%"}]}, {"smiles": "O=C1NC(=O)c2c1c1c(c3[nH]c4ccc(-c5csc(CNC(=O)C6CCCC6)n5)cc4c23)CCC1", "values": [{"measurement": "Activity", "setting": "[1]", "value": 21, "unit": "%"}, {"measurement": "Activity", "setting": "[2]", "value": 29, "unit": "%"}]}, {"smiles": "CNc1nc(-c2ccc3[nH]c4c5c(c6c(c4c3c2)C(=O)NC6=O)CCC5)cs1", "values": [{"measurement": "Activity", "setting": "[1]", "value": 22, "unit": "%"}, {"measurement": "Activity", "setting": "[2]", "value": 56, "unit": "%"}]}, {"smiles": "O=C1NC(=O)c2c1c1c(c3[nH]c4ccc(-c5csc(CNC6O[C@H](CO)[C@@H](O)[C@H](O)[C@H]6O)n5)cc4c23)CCC1", "note": "(some centres not stated)", "values": [{"measurement": "IC50", "setting": "[4]", "value": 17, "unit": "nM"}, {"measurement": "Activity", "setting": "[1]", "value": 0, "unit": "%"}, {"measurement": "Activity", "setting": "[2]", "value": 0, "unit": "%"}]}, {"smiles": "CC(C)(C)OC(=O)NC(CCCc1nc(-c2ccc3[nH]c4c5c(c6c(c4c3c2)C(=O)NC6=O)CCC5)cs1)C(=O)OC(C)(C)C", "note": "(configuration not stated)", "values": [{"measurement": "IC50", "setting": "[4]", "value": 46, "unit": "nM"}, {"measurement": "Activity", "setting": "[1]", "value": 17, "unit": "%"}, {"measurement": "Activity", "setting": "[3]", "value": 27, "unit": "%"}]}, {"smiles": "CCCC(=O)NCc1nc(-c2ccc3[nH]c4c5c(c6c(c4c3c2)C(=O)NC6=O)CCC5)cs1", "values": [{"measurement": "Activity", "setting": "[1]", "value": 19, "unit": "%"}, {"measurement": "Activity", "setting": "[2]", "value": 29, "unit": "%"}]}, {"smiles": "O=C1NC(=O)c2c1c1c(c3[nH]c4ccccc4c23)CCC1", "values": [{"measurement": "Activity", "setting": "[1]", "value": 30, "unit": "%"}]}, {"smiles": "O=C1NC(=O)c2c1c1c(c3[nH]c4ccc(-c5csc(CNC(=O)C6CC6)n5)cc4c23)CCC1", "values": [{"measurement": "Activity", "setting": "[1]", "value": 11, "unit": "%"}, {"measurement": "Activity", "setting": "[2]", "value": 16, "unit": "%"}]}, {"smiles": "NCc1ccc2[nH]c3c4c(c5c(c3c2c1)C(=O)NC5=O)CCC4", "values": [{"measurement": "IC50", "setting": "[4]", "value": 18, "unit": "nM"}, {"measurement": "Activity", "setting": "[1]", "value": 84, "unit": "%"}, {"measurement": "Activity", "setting": "[2]", "value": 100, "unit": "%"}]}, {"smiles": "CC(=O)Nc1nc(-c2ccc3[nH]c4c5c(c6c(c4c3c2)C(=O)NC6=O)CCC5)cs1", "values": [{"measurement": "Activity", "setting": "[1]", "value": 10, "unit": "%"}, {"measurement": "Activity", "setting": "[2]", "value": 34, "unit": "%"}]}, {"smiles": "O=C(CBr)c1ccc2[nH]c3c4c(c5c(c3c2c1)C(=O)NC5=O)CCC4", "values": [{"measurement": "Activity", "setting": "[1]", "value": 32, "unit": "%"}, {"measurement": "Activity", "setting": "[2]", "value": 49, "unit": "%"}]}]}
